Source: paper PMC2151583 (The Journal of General Physiology, 2006)
Substitutions are numbered along the chain they refer to.

Tests used:
Assay in all cases: inside-out patch clamp, Xenopus oocytes
HCN2 [1] = biological target: T1, HCN2 (Mus musculus, UniProt O88703); type: cell-based
T1 sequence (O88703 1-863): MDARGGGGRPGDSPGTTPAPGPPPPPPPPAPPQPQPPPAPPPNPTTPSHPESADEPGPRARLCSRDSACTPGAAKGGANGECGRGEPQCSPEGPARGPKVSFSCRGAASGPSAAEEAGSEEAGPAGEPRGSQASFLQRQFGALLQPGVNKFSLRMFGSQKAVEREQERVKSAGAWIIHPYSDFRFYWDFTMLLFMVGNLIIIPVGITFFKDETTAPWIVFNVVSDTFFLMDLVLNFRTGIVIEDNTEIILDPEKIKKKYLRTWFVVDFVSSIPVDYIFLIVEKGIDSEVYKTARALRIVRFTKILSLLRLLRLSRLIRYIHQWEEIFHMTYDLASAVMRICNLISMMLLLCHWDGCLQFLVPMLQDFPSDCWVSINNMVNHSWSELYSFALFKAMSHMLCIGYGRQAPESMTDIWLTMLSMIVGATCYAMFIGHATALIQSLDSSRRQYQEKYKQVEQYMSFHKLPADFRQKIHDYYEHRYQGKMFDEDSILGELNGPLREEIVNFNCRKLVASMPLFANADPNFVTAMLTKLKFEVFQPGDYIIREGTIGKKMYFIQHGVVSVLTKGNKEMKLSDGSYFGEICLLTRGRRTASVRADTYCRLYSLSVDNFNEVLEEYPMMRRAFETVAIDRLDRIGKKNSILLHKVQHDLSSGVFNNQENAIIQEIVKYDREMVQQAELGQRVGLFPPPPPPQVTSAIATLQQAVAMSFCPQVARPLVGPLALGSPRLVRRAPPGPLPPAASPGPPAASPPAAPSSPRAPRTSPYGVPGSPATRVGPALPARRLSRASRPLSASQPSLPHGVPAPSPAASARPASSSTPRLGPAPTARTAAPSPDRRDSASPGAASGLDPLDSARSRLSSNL

HCN2 [2] = biological target: T1, HCN2; type: biochemical
HCN2/FPN = biological target: T2, HCN2/FPN (Mus musculus, UniProt O88703, Q450F/E451P/K452N); type: cell-based
T2 sequence (O88703 1-863 Q450F/E451P/K452N): T1 sequence (O88703 1-863) with Q450F, E451P, K452N

HCN2 [3] = biological target: T1, HCN2; type: cell-based; remark: listed apart in the source

| Molecule | inside-out patch clamp, Xenopus oocytes; shift in V1/2 at 25 μM (HCN2 [1]) [mV] | inside-out patch clamp, Xenopus oocytes; shift in V1/2 at 1 μM (HCN2 [3]) | other results |
| --- | --- | --- | --- |
| CCCCCCCC(=O)OC[C@H](COP(=O)(O)O[C@H]1[C@H](O)[C@@H](O)[C@H](OP(=O)(O)O)[C@@H](OP(=O)(O)O)[C@H]1O)OC(=O)CCCCCCC [diC8 PI(3,4)P2, dioctanoyl phosphatidylinositol 3,4-bisphosphate] | 12.3 |  |  |
| CCCCCCCC(=O)OC[C@H](COP(=O)(O)O[C@H]1[C@H](O)[C@@H](OP(=O)(O)O)[C@H](OP(=O)(O)O)[C@@H](OP(=O)(O)O)[C@H]1O)OC(=O)CCCCCCC [diC8 PI(3,4,5)P3, dioctanoyl phosphatidylinositol 3,4,5-trisphosphate] | 9.3 |  |  |
| CCCCCCCC(=O)OC[C@H](COP(=O)(O)O[C@H]1[C@H](O)[C@@H](O)[C@H](OP(=O)(O)O)[C@@H](O)[C@H]1O)OC(=O)CCCCCCC [diC8 PI(4)P, dioctanoyl phosphatidylinositol 4-phosphate] | 7.5 |  |  |
| CCCCCCCC(=O)OC[C@H](COP(=O)(O)O[C@@H]1[C@H](O)[C@H](O)[C@@H](OP(=O)(O)O)[C@H](OP(=O)(O)O)[C@H]1O)OC(=O)CCCCCCC [diC8 PI(4,5)P2, dioctanoyl phosphatidylinositol 4,5-bisphosphate] |  |  | EC50 (HCN2 [2]): 10.9 µM; inside-out patch clamp, Xenopus oocytes; shift in V1/2 at 25 μM (HCN2/FPN): +13.9 mV |
| CCCCCCCC/C=C\CCCCCCCC(=O)SCCNC(=O)CCNC(=O)[C@H](O)C(C)(C)COP(=O)(O)OP(=O)(O)OC[C@H]1O[C@@H](n2cnc3c(N)ncnc32)[C@H](O)[C@@H]1OP(=O)(O)O [oleoyl CoA, Oleoyl CoA] |  | +16.0 mV |  |
| phosphatidylinositol 4,5-bisphosphate [native PI(4,5)P2] |  | +31.8 mV |  |
